From patent US8865134B2, “Chewing gum” (Med-Eq AS, priority 2005, dated 2014)

Tested on: amylase enzyme
Test: Amylase inhibition (salivary and intestinal amylase)
Assay type: biochemical
Conditions: amylase present in saliva and in the gut

Effect on amylase enzyme: blocks the amylase enzyme
Compound: O=C(/C=C/c1ccc(O)c(O)c1)O[C@@H]1C[C@](O)(C(=O)O)C[C@@H](O)[C@H]1O [chlorogenic acid]
